This assay deals with T1, TAF3 A902L (GST-tagged PHD) (Mus musculus, UniProt Q5HZG4, A902L).
T1 construct: Mus musculus Taf3-PHD domain (residues 857–924); made in house; host or cells: E. coli BL21(DE3)
T1 sequence (Q5HZG4 857-924 A902L): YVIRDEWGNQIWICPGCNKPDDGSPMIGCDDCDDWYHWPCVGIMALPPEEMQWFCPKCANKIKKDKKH
As to the kind of experiment: ITC of GST-tagged Taf3-PHD A902L. Type of assay: binding. From the text:
The coding sequences of Mus musculus Taf3-PHD domain (residues 857–924) and Homosapiens PHF2 (1–66), PHF8 (37–102), and BPTF(2) (2865–2921) were cloned into the pGEX2T-derived vector, pRP265NB, for bacterial expression of GST-tagged proteins. Note that the PHD fingers of M. musculus Taf3 and H. sapiens TAF3 differ in a single amino acid. A901 in mouse corresponds to T899 in human. Here, amino acid numbering corresponds to mouse Taf3 isoform 1 with UniProt ID: Q5HZG4, accessible at https://www.uniprot.org/uniprotkb/Q5HZG4/entry. Single or double mutations were introduced by mutagenesis polymerase chain reaction and validated by Sanger sequencing. A single colony of freshly transformed BL21(DE3) Escherichia coli bacteria with the corresponding construct was grown in Luria broth (LB) medium supplemented with 50 μg/ml ampicillin until an OD600 of 0.7. […]
ITC experiments were performed at 20°C with a MicroCal VP-ITC microcalorimeter (Malvern) by sequential injection of 10 μl at 300 μM histone peptide during 20 s into the sample cell containing 30 or 15 μM of GST-Taf3 (wild type or mutant) or GST-BPTF, GST-PHF2, and GST-PHF8 PHDs in ITC buffer (100 mM NaCl, 20 mM Tris–HCl, pH 7.5). […] ITC data were subsequently analysed and fitted with the one-site binding model in the MicroCal ITC Origin Analysis software 7.0 (Table 1, Figs 3B and 5A, Supplementary Table S3, and Supplementary Fig. S10). […]

Like-named read-outs stand apart in the source and are kept apart here.

As to `C[C@H](N)C(=O)N[C@@H](CCCNC(=N)N)C(=O)N[C@H](C(=O)N[C@@H](CCCC[N+](C)(C)C)C(=O)N[C@@H](CCC(=O)NCCc1c[nH]c2ccc(O)cc12)C(=O)N[C@H](C(=O)N[C@@H](C)C(=O)N[C@@H](CCCNC(=N)N)C(=O)N[C@@H](CCCCN)C(=O)N[C@@H](CO)C(=O)N[C@H](C(=O)NCC(N)=O)[C@@H](C)O)[C@@H](C)O)[C@@H](C)O` [H3K4me3Q5ser], the Kd amounted to 51 ± 3 nM. Regarding `C[C@H](N)C(=O)N[C@@H](CCCNC(=N)N)C(=O)N[C@H](C(=O)N[C@@H](CCCC[N+](C)(C)C)C(=O)N[C@@H](CCC(N)=O)C(=O)N[C@H](C(=O)N[C@@H](C)C(=O)N[C@@H](CCCNC(=N)N)C(=O)N[C@@H](CCCCN)C(=O)N[C@@H](CO)C(=O)N[C@H](C(=O)NCC(N)=O)[C@@H](C)O)[C@@H](C)O)[C@@H](C)O` [H3K4me3], where the note is “ITC, 20°C, 100 mM NaCl, 20 mM Tris–HCl, pH 7.5, one-site model, ± = standard error of fit, read-out: K D”, the Kd stood at 166 ± 17 nM.
